# Target: T1, human Werner helicase (WRN-BV08, Uniprot Q14191, amino acids 517-1235 with L1074F point mutation) (Homo sapiens, UniProt Q14191, L1074F)
# T1 construct: Uniprot Q14191, amino acids 517-1235 with L1074F point mutation; TEV-cleavable 8×His (C, cleaved yes); made in house; host or cells: Sf9 insect cells (baculovirus)
# Test: WRN (BV08) ADP-Glo Assay
# Assay type: biochemical
# Conditions: 0.15 nM WRN, 5 μM ATP, 0.1 nM DNA duplex, 15 min preincubation, 60 min at 25° C., pH 7.5, 1% DMSO; read-out: ADP-Glo_hWRN_IC50
# Procedure, shortened: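 Untagged WRN (Sf9-expressed, TEV-cleaved) at 0.15 nM was preincubated 15 min at 25 °C with compound, then reacted 60 min at 25 °C with 5 μM ATP and 0.1 nM DNA duplex in Bicine pH 7.5, 1 mM MgCl2. ADP-Glo luminescence gave % inhibition; IC50 by four-parameter fit.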
# T1 sequence (Q14191 with tags, fused parts or gaps L1074F limits assumed): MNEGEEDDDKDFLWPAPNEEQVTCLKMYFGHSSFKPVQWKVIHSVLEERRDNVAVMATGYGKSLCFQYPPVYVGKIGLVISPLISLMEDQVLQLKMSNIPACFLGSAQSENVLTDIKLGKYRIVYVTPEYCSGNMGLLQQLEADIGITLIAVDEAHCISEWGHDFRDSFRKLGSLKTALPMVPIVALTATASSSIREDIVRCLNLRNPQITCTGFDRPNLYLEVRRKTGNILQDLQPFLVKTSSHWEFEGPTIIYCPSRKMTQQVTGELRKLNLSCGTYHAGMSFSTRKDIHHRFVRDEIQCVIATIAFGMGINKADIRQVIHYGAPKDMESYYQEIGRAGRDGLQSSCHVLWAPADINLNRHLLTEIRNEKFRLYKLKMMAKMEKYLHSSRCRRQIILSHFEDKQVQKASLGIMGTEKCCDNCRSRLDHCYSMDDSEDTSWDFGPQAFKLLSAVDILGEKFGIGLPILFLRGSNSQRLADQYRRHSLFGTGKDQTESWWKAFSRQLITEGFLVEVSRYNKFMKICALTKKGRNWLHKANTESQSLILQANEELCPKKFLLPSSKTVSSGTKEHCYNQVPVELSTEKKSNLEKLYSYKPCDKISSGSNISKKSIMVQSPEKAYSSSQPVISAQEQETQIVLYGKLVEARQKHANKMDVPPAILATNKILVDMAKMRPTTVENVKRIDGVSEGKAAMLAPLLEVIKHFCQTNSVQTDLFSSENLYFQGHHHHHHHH
row,IC50 [µM],SMILES
1,< 0.5,"COc1cc(CN(C(=O)Cc2ccc(S(F)(F)(F)(F)F)cc2)C2C=CS(=O)(=O)C2)ccn1 (stereo not drawn) [I-29, N-(1,1-dioxo-2,3-dihydro-1lambda6-thiophen-3-yl)-N-[(2-methoxypyridin-4-yl)methyl]-2-[4-(pentafluoro-lambda6-sulfanyl)phenyl]acetamide]"
2,> 50,"O=C(CC1CCC(c2ccccc2)CC1)N(Cc1ccncc1)C1C=CS(=O)(=O)C1 (stereo not drawn) [I-416, N-(1,1-dioxo-2,3-dihydro-1lambda6-thiophen-3-yl)-2-(4-phenylcyclohexyl)-N-[(pyridin-4-yl)methyl]acetamide]"
3,0.5 to 5,"COc1cc(CN(C(=O)C(C(=O)N(C)C)c2ccc(S(F)(F)(F)(F)F)cc2)C2C=CS(=O)(=O)C2)ccn1 (stereo not drawn) [I-159, N′-(1,1-dioxo-2,3-dihydro-1lambda6-thiophen-3-yl)-N′-[(2-methoxypyridin-4-yl)methyl]-N,N-dimethyl-2-[4-(pentafluoro-lambda6-sulfanyl)phenyl]propanediamide]"
4,10 to 50,"CCc1ccc(CC(=O)N(Cc2ccncc2)C2C=CS(=O)(=O)C2)cc1 (stereo not drawn) [I-308, N-(1,1-dioxo-2,3-dihydro-1lambda6-thiophen-3-yl)-2-(4-ethylphenyl)-N-[(pyridin-4-yl)methyl]acetamide]"
5,10 to 50,"O=C(Cc1ccc(-n2cccc2)cc1)N(Cc1c(F)cccc1F)C1C=CS(=O)(=O)C1 (stereo not drawn) [I-294, N-[(2,6-difluorophenyl)methyl]-N-(1,1-dioxo-2,3-dihydro-1lambda6-thiophen-3-yl)-2-[4-(1H-pyrrol-1-yl)phenyl]acetamide]"
6,0.5 to 5,"COc1ccc2sc(CN(C(=O)Cc3ccc(-n4cccc4)cc3)C3C=CS(=O)(=O)C3)nc2c1 (stereo not drawn) [I-102, N-(1,1-dioxo-2,3-dihydro-1lambda6-thiophen-3-yl)-N-[(5-methoxy-1,3-benzothiazol-2-yl)methyl]-2-[4-(1H-pyrrol-1-yl)phenyl]acetamide]"
7,0.5 to 5,"O=C(Cn1cc(-c2ccc(F)c(F)c2)cn1)N(Cc1nc(C2CC2)cs1)C1C=CS(=O)(=O)C1 (single isomer, unassigned) [I-604]"
8,> 50,"O=C(Cc1ccc(S(F)(F)(F)(F)F)cc1)N(Cc1nn[nH]n1)C1C=CS(=O)(=O)C1 (stereo not drawn) [I-757, N-(1,1-dioxo-2,3-dihydro-1lambda6-thiophen-3-yl)-2-[4-(pentafluoro-lambda6-sulfanyl)phenyl]-N-[(2H-1,2,3,4-tetrazol-5-yl)methyl]acetamide]"
9,> 50,"O=C(CN1CCN(c2ccccc2)CC1)N(Cc1ccncc1)C1C=CS(=O)(=O)C1 (stereo not drawn) [I-557, N-(1,1-dioxo-2,3-dihydro-1lambda6-thiophen-3-yl)-2-(4-phenylpiperazin-1-yl)-N-[(pyridin-4-yl)methyl]acetamide]"
10,10 to 50,"O=C1NC(c2ccccc2)CCN1CC(=O)N(Cc1ccncc1)C1C=CS(=O)(=O)C1 (stereo not drawn) [I-819, N-(1,1-dioxo-2,3-dihydro-1lambda6-thiophen-3-yl)-2-(2-oxo-4-phenyl-1,3-diazinan-1-yl)-N-[(pyridin-4-yl)methyl]acetamide]"
11,0.5 to 5,"COc1cc(C(C)N(C(=O)Cn2cc(-c3cc(F)c(F)c(F)c3)cn2)C2C=CS(=O)(=O)C2)ccn1 (single isomer, unassigned) [I-828, N-[(3R**)-1,1-dioxo-2,3-dihydro-1lambda6-thiophen-3-yl]-N-[(1R*)-1-(2-methoxypyridin-4-yl)ethyl]-2-[4-(3,4,5-trifluorophenyl)-1H-pyrazol-1-yl]acetamide]"
12,< 0.5,"COCCOC(C(=O)N(Cc1ccnc(C(C)(C)O)c1)[C@@H]1C=CS(=O)(=O)C1)c1ccc(-c2ccc(F)c(F)c2)cc1F (stereo partly drawn) [I-30, N-[(3R)-1,1-dioxo-2,3-dihydro-1lambda6-thiophen-3-yl]-N-{[2-(2-hydroxypropan-2-yl)pyridin-4-yl]methyl}-2-(2-methoxyethoxy)-2-{3,3′,4′-trifluoro-[1,1′-biphenyl]-4-yl}acetamide]"
13,< 0.5,"COc1cc(CN(C(=O)Cc2ccc(C(F)(F)F)cc2)C2C=CS(=O)(=O)C2)ccn1 (single isomer, unassigned) [I-57]"
14,5 to 10,"O=C(Cc1ccc(S(F)(F)(F)(F)F)cc1)N(Cc1cnoc1)C1C=CS(=O)(=O)C1 (stereo not drawn) [I-648, N-(1,1-dioxo-2,3-dihydro-1lambda6-thiophen-3-yl)-N-[(1,2-oxazol-4-yl)methyl]-2-[4-(pentafluoro-lambda6-sulfanyl)phenyl]acetamide]"
15,0.5 to 5,"COc1cc(CN(C(=O)Cc2ccc(C(F)(F)F)cc2)C2C=CS(=O)(=O)C2)ccn1 (stereo not drawn) [I-105, N-(1,1-dioxo-2,3-dihydro-1lambda6-thiophen-3-yl)-N-[(2-methoxypyridin-4-yl)methyl]-2-[4-(trifluoromethyl)phenyl]acetamide]"
16,0.5 to 5,"CC(C)(O)c1cc(CN(C(=O)C2Cc3cc(C(F)(F)F)ccc3O2)C2C=CS(=O)(=O)C2)ccn1 (stereo not drawn) [I-131, N-(1,1-dioxo-2,3-dihydro-1lambda6-thiophen-3-yl)-N-{[2-(2-hydroxypropan-2-yl)pyridin-4-yl]methyl}-5-(trifluoromethyl)-2,3-dihydro-1-benzofuran-2-carboxamide]"
17,> 50,"O=C(CCn1ccc2ccccc21)N(Cc1ccncc1)C1C=CS(=O)(=O)C1 (stereo not drawn) [I-502, N-(1,1-dioxo-2,3-dihydro-1lambda6-thiophen-3-yl)-3-(1H-indol-1-yl)-N-[(pyridin-4-yl)methyl]propanamide]"
18,< 0.5,"COc1cc(CN(C(=O)Cc2ccc(S(F)(F)(F)(F)F)cc2F)C2C=CS(=O)(=O)C2)ccn1 (stereo not drawn) [I-22, N-(1,1-dioxido-2,3-dihydrothiophen-3-yl)-2-(2-fluoro-4-(pentafluoro-λ^6-sulfaneyl)phenyl)-N-((2-methoxypyridin-4-yl)methyl)acetamide]"
19,< 0.5,"CC(C)(O)c1cc(CN(C(=O)Cn2cc(-c3ccc(F)c(F)c3)cn2)[C@@H]2C=CS(=O)(=O)C2)ccn1 [I-6, (R)-2-(4-(3,4-difluorophenyl)-1H-pyrazol-1-yl)-N-(1,1-dioxido-2,3-dihydrothiophen-3-yl)-N-((2-(2-hydroxypropan-2-yl)pyridin-4-yl)methyl)acetamide]"
20,5 to 10,"C#CCCCC(=O)N1CCN(C(=O)c2ccc(CN(C(=O)Cc3ccc(-n4cccc4)cc3F)C3C=CS(=O)(=O)C3)cc2)CC1 (stereo not drawn) [I-229, N-(1,1-dioxo-2,3-dihydro-1lambda6-thiophen-3-yl)-2-[2-fluoro-4-(1H-pyrrol-1-yl)phenyl]-N-({4-[4-(hex-5-ynoyl)piperazine-1-carbonyl]phenyl}methyl)acetamide]"
21,> 50,"O=C(Cn1cc2ccccc2n1)N(Cc1ccncc1)C1C=CS(=O)(=O)C1 (stereo not drawn) [I-433, N-(1,1-dioxo-2,3-dihydro-1lambda6-thiophen-3-yl)-2-(2H-indazol-2-yl)-N-[(pyridin-4-yl)methyl]acetamide]"
22,0.5 to 5,"N#CC1=CC(N(Cc2ccccc2)C(=O)Cc2ccc(-c3ccc(F)cc3)cc2)CS1(=O)=O (stereo not drawn) [I-728, N-benzyl-N-(5-cyano-1,1-dioxo-2,3-dihydro-1lambda6-thiophen-3-yl)-2-{4′-fluoro-[1,1′-biphenyl]-4-yl}acetamide]"
23,10 to 50,"O=C(CCc1c[nH]c2cc(Cl)ccc12)N(Cc1ccncc1)C1C=CS(=O)(=O)C1 (stereo not drawn) [I-306, 3-(6-chloro-1H-indol-3-yl)-N-(1,1-dioxo-2,3-dihydro-1lambda6-thiophen-3-yl)-N-[(pyridin-4-yl)methyl]propanamide]"
24,0.5 to 5,"O=C(Cc1ccc(-c2ccc(F)cc2)cc1C(F)F)N(Cc1ccncc1)C1C=CS(=O)(=O)C1 (stereo not drawn) [I-196, 2-[3-(difluoromethyl)-4′-fluoro-[1,1′-biphenyl]-4-yl]-N-(1,1-dioxo-2,3-dihydro-1lambda6-thiophen-3-yl)-N-[(pyridin-4-yl)methyl]acetamide]"
25,0.5 to 5,"CC(O)c1cc(CN(C(=O)Cc2ccc(-n3cccc3)cc2)C2C=CS(=O)(=O)C2)ccn1 (stereo not drawn) [I-169, N-(1,1-dioxo-2,3-dihydro-1lambda6-thiophen-3-yl)-N-{[2-(1-hydroxyethyl)pyridin-4-yl]methyl}-2-[4-(1H-pyrrol-1-yl)phenyl]acetamide]"
26,0.5 to 5,"O=C(Cc1ccc(S(F)(F)(F)(F)F)cc1)N(Cc1cc(C2CC2)no1)C1C=CS(=O)(=O)C1 (stereo not drawn) [I-624, N-[(3-cyclopropyl-1,2-oxazol-5-yl)methyl]-N-(1,1-dioxo-2,3-dihydro-1lambda6-thiophen-3-yl)-2-[4-(pentafluoro-lambda6-sulfanyl)phenyl]acetamide]"
27,> 50,"CC(C(=O)N(Cc1ccncc1)C1C=CS(=O)(=O)C1)n1cc2ccccc2n1 (stereo not drawn) [I-620, N-(1,1-dioxo-2,3-dihydro-1lambda6-thiophen-3-yl)-2-(2H-indazol-2-yl)-N-[(pyridin-4-yl)methyl]propanamide]"
28,5 to 10,"O=C(Cc1ccc(-n2cccc2)cc1)N(Cc1nccs1)C1C=CS(=O)(=O)C1 (stereo not drawn) [I-276, N-(1,1-dioxo-2,3-dihydro-1lambda6-thiophen-3-yl)-2-[4-(1H-pyrrol-1-yl)phenyl]-N-[(1,3-thiazol-2-yl)methyl]acetamide]"
29,10 to 50,"O=C(Cc1ccc(-n2ccc3ccccc32)cc1)N(Cc1ccncc1)C1C=CS(=O)(=O)C1 (stereo not drawn) [I-305, N-(1,1-dioxo-2,3-dihydro-1lambda6-thiophen-3-yl)-2-[4-(1H-indol-1-yl)phenyl]-N-[(pyridin-4-yl)methyl]acetamide]"
30,< 0.5,"COc1cc(CN(C(=O)C(c2ccc(-c3ccc(F)c(F)c3)cc2F)n2cccn2)[C@@H]2C=CS(=O)(=O)C2)ccn1 (single isomer, unassigned) [I-671, (2R*)-N-[(3R)-1,1-dioxo-2,3-dihydro-1lambda6-thiophen-3-yl]-N-[(2-methoxypyridin-4-yl)methyl]-2-(1H-pyrazol-1-yl)-2-{3,3′,4′-trifluoro-[1,1′-biphenyl]-4-yl}acetamide]"
